# Assays:
# [1] = system: MCF7; experiment: Cytotoxicity against human MCF7 cells assessed as cell viability after 48 hrs by MTT assay; type: functional, cell-based; details: MCF7, 48 h
# [2] = system: HT-29; experiment: Cytotoxicity against human HT-29 cells assessed as cell viability after 48 hrs by MTT assay; type: functional, cell-based; details: HT-29, 48 h
structure (smiles),measurement,setting,value
C=CCCC[C@@H]1OC(=O)CNC(=O)[C@H](Cc2ccccc2)N(C)C(=O)[C@@H]2CCCN2C(=O)[C@H](Cc2ccccc2)N(C)C(=O)[C@H](C(C)C)NC(=O)C1(C)C [COCOSAMIDE A],IC50,[1],30 µM
same,IC50,[2],24 µM
C#CCCC[C@@H]1OC(=O)CNC(=O)[C@H](Cc2ccccc2)N(C)C(=O)[C@@H]2CCCN2C(=O)[C@H](Cc2ccccc2)N(C)C(=O)[C@H](C(C)C)NC(=O)C1(C)C [COCOSAMIDE B],IC50,[1],39 µM
same,IC50,[2],11 µM
CCCCCCC[C@@H](C/C=C/CCC(=O)N(C)C/C(=C\Cl)CC(=O)CC(=O)NC[C@H](O)CC(=O)OC)OC [MALYNGAMIDE 3],IC50,[1],29 µM
same,IC50,[2],48 µM
CC(=O)O[C@H]1C(=O)[C@@]2(C)[C@H]([C@H](OC(=O)c3ccccc3)[C@]3(O)C[C@H](OC(=O)[C@H](O)[C@@H](NC(=O)c4ccccc4)c4ccccc4)C(C)=C1C3(C)C)[C@]1(OC(C)=O)CO[C@@H]1C[C@@H]2O [PACLITAXEL],IC50,[1],0.006 µM
same,IC50,[2],0.007 µM
